Test results from patent US9351983B2, “Use of glycerophosphoinositols for the treatment of septic shock” (CONSIGLIO NAZIONALE DELLE RICERCHE, priority 2012, dated 2016).

Columns and labels:
[1] = test system: TxB-2; test: ELISA of TxB-2 in medium of LPS-stimulated monocytes; format: cell-based, human; settings: 300 μM
Procedure: FIG. 5—The inhibitory effects of GroPIns are also evident at the protein expression level. Purified monocytes (4×10^3 cells/sample) were pre-incubated for 20 min at 37° C. in the absence and presence of 300 μM GroPIns, and then for a further 5 h and 24 h without or with 0.1 μg/ml LPS from E. coli. At the end of this incubation, the levels of TNFα, IL-1β and TxB-2 in the medium were assessed by ELISA. In monocytes alone, the protein concentrations were under the assay detection limits at both the times. The data are representative of three independent experiments performed with cells from different donors. Exposure of monocytes to LPS induced a time-dependent increase in the […] levels of all of the cytokines analysed.
Cellular levels of TNFα, IL-1β and TxB-2 were quantified by enzyme-linked immunosorbent assay (ELISA). Conditioned medium from monocytes was sedimented by centrifugation at 300×g at room temperature for 10 min to eliminate cellular debris. Then, the supernatant was recovered and the concentrations of TNFα, IL-1β and TxB-2 were assessed by ELISA, as specified by the manufacturers (Amersham Pharmacia Biotech (NJ, USA).

[2] = test system: human monocytes; test: In vitro model of human innate immunity inflammation: morphology and viability by light microscopy; format: cell-based; settings: 300 μM, added 20 minutes before LPS, IL-10 and TGF-β; images at 2 h, 14 h, 24 h, 48 h; one donor, preliminary
Source text: FIG. 13—The in vitro model of human innate immunity inflammation. Schematic representation and timing of the in vitro stimulation of human monocytes. In order to mimic the microenvironmental changes and the timing of human host response that covers the different phases of the inflammatory reaction, from recruitment and onset, to development and resolution of inflammation, cultured cells have been exposed to sequential changes of microenvironmental conditions. Monocytes in culture were exposed to chemokine C-C motif ligand 2 (CCL2), responsible for monocytes recruitment to sites of injury through endothelial cells adhesion, lipopolysaccharide (LPS), as a pathogen insult, tumor necrosis factor α (TNFα) and interferon γ (IFN-γ) as inducers of acute phase of inflammation and finally with interleukin 10 (IL-10) and transforming growth factor β (TGF-β), responsible for the resolution of inflammation. In detail: at time zero freshly isolated human monocytes were exposed to CCL2 (20 ng/ml) at 37° C. […]
Freshly isolated human monocytes, which have been used for all the above-mentioned experiments, were purified from buffy coat prepared at I.N.T. Pascale in Naples. […] The viability of cells was determined by trypan blue staining. The purity of isolated cells (98%) was microscopically detected after centrifugation and staining with modified Wright-Giemsa dye (Diff Quick, Medion Diagnostic AG). […]

How did the “level of TxB-2 in the medium” value ([1]; 0.1 μg/ml LPS for 5 h) turn out when `O=P(O)(OCC(O)CO)OC1C(O)C(O)C(O)C(O)C1O` (stereo not drawn) [GroPIns, glycerophosphoinositol] was run?
The value was “very small effects”.

And the “level of TxB-2 in the medium” value ([1]; 0.1 μg/ml LPS for 24 h)?
Its value is “significantly reduced”.

And the “cellular viability (light microscopy)” value [2]?
Its value is “cellular viability increased”.
